Series [1] addresses T1, recombinant QR2 (Homo sapiens, UniProt P16083).
T1 sequence (P16083 1-231): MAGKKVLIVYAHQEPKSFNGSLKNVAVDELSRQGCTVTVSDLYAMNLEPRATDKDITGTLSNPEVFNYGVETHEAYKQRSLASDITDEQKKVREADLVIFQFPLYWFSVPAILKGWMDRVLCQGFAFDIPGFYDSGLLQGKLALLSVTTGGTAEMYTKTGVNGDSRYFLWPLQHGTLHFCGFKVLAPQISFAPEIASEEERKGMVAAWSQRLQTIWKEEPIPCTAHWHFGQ
Briefly: Inhibition of QR2 activity in vitro (absorbance at 365 nm, NmeH/menadione). Format: biochemical. The method, then:
Inhibition of QR2 activity by the compounds of the invention was assayed in triplicate with recombinant QR2 (at 96 ng/ml) by measuring the absorbance at 365 nm in a buffer containing 50 Mm Tris-HCl, Ph 8.5, 50 μM NmeH, 20 μM menadione, and 0.1% Triton X-100 as described in Graves et al. (2002) Mol. Pharmacol. 62: 1364-72.

The test system of series [2] is P. yoelii ssp. NS. Briefly: Four day test for blood schizontocidal activity, chloroquine-resistant P. yoelii ssp. NS in mice. The series is classed as in vivo, Plasmodium yoelii. Details: ED90: unit not given beside the values. The following applies: for ED50: Plasmodium yoelii. The method, then:
(§1) MEFA which was developed from NS by the 2% relapse technique (Peters, W., Chemotherapy and Drug Resistance in Malaria, 2nd Ed., London, Academic Press, ISBN 0-12-552721-7).
(§2) Blood schizontocidal activity was assessed by the “four day test” essentially as described by Peters, W. and Robinson, B. L. (1999), “Malaria” in Handbook of Animal Models of Infection, Academic Press. The compound was dissolved in dimethyl sulfoxide with the aid of ultrasonification and aqueous dilutions were prepared for use.
(§3) Random-bred Swiss albino mice free of Mycoplasma (Eperythrozoon) coccoides and weighing between 18 and 22 g. were infected via the tail vein on day 0 (D0) and then treated once daily either subcutaneously or orally by gavage for four consecutive days (D0 through D+3). Thin blood films were made from tail blood from groups of untreated controls and from treated animals on D+4.

Series [3] in a line: Signs of toxicity in mice treated in the four day test. Format: in vivo.
Description: as §3

Series [4] deals with P. yoelii ssp. MEFA. Briefly: Four day test for blood schizontocidal activity, mefloquine-resistant P. yoelii ssp. MEFA in mice. Format: in vivo, Plasmodium yoelii. The settings on record: for ED50: Plasmodium yoelii. Also noted: ED90: unit not given beside the values. How it is done:
as §1, §2, §3

Series [5] has as its system Plasmodium chabaudi AS line. Briefly: Four day test for blood schizontocidal activity, P. chabaudi AS in mice. Details: ED90: unit not given beside the values. The settings on record: for ED50: Plasmodium chabaudi. The series is classed as in vivo. How it is done:
as §1, §2, §3

The mark [6] stands for this setting: average of the determinations, read-out: IC50 Average.
[7] abbreviates: individual determinations, assay range given, read-out: IC50.
[8] abbreviates: set 1, average, read-out: IC50 Average.
Where [9] appears, read: set 2, average, read-out: IC50 Average.
The mark [10] stands for this setting: set 2, individual determinations, read-out: IC50.
Setting [11] is: P. yoelii ssp. MEFA, sc, once daily D0 to D+3, mice.

Several values for one entry are separate records, joined by “and”; a condition that tells them apart may be missing. Equal entries are not always repeated. Where two headings read alike, the source gives them in different places.

As usually defined, the IC50 is the concentration at which inhibition is half-maximal. By ED50 is commonly meant the dose at which the effect has come halfway, by size or by number of responders.

In the case of `Clc1ccc2c(NCCc3ccccn3)ccnc2c1` [Compound 2-4], the half-maximal inhibitory concentration (IC50) in series [1] (setting [6]) is 3.8 µM; in series [1] (setting [7]) it was 3.3 µM and 4.7 µM.
`Oc1ccc(CCNc2ccnc3cc(Cl)ccc23)cc1` [Compound 2-5]: the half-maximal inhibitory concentration (IC50) was 2.7 µM in series [1] (setting [6]); 2.68 µM and 2.42 µM and 2.86 µM in series [1] (setting [7]).
As to `Clc1ccc2c(NCc3ccccn3)ccnc2c1` [Compound 2-17], the half-maximal inhibitory concentration (IC50) in series [1] (setting [8]) was 0.6 µM; in series [1] (set 1, individual determinations, read-out: IC50), 0.41 µM and 0.67 µM and 0.72 µM; in series [1] (setting [9]), 0.55 µM; in series [1] (setting [10]) it was 0.6 µM and 0.5 µM.
Regarding `Clc1ccc2c(NC3=NC4C=CC=CC4N3)ccnc2c1` (stereo not drawn) [Compound 2-29], the IC50 was 3.2 µM in series [1] (setting [6]); 4.1 µM and 2.2 µM and 3.4 µM in series [1] (setting [7]).
Regarding `Clc1ccc2c(SCc3ccccn3)ccnc2c1` [Compound 2-33], the half-inhibitory concentration (IC50) in series [1] (setting [6]) is 74 µM; in series [1] (setting [7]) it was 84 µM and 72.2 µM and 65.9 µM.
In the case of `Clc1ccc2c(OCc3ccccn3)ccnc2c1` [Compound 2-34], the IC50 was 79.6 µM in series [1] (setting [6]); 81.5 µM and 79 µM and 78.3 µM in series [1] (setting [7]).
Take `CNc1ccnc2cc(Cl)ccc12` [Compound 2-39]: the median effective dose (ED50) in series [2] (po) is 220 mg/kg; in series [2] (sc), 400 mg/kg; in series [4] (P. yoelii ssp. MEFA, po, once daily D0 to D+3, mice) it was 190 mg/kg; in series [4] (setting [11]), 320 mg/kg; in series [5] (po), 150 mg/kg; in series [5] (sc) it was 150 mg/kg. The “inhibitory activity against resistant strain of P. yoelii” value is on record as “demonstrated inhibitory activity” in series [2] (chloroquine-resistant P. yoelii ssp. NS, result in words) and “demonstrated inhibitory activity” in series [4] (mefloquine-resistant P. yoelii ssp. MEFA, result in words). In addition, in series [3] (oral, higher doses), the toxicity entry is “some toxicity was observed at higher doses”. Further, the “overt signs of toxicity” value in series [3] (subcutaneous) is given as “No overt signs of toxicity”. The half-inhibitory concentration (IC50) is 0.13 µM in series [1] (setting [6]); 0.13 µM and 0.16 µM and 0.09 µM in series [1] (setting [7]). Further, in series [5] (parenteral and oral, result in words), the “activity against the drug-sensitive P. chabaudi AS line” value was “active both parenterally and orally”.
Turning to `CC(O)CNCCNc1cc(C(F)(F)F)nc2c(C(F)(F)F)cccc12` (stereo not drawn) [Compound 3-3], the half-maximal inhibitory concentration (IC50) in series [1] (setting [6]) was 98 µM; in series [1] (setting [7]), 109 µM and 87 µM.
In the case of `OCCN(CCO)CCCNc1cc(C(F)(F)F)nc2c(C(F)(F)F)cccc12` [Compound 3-4], the concentration for half-maximal inhibition (IC50) was 238 µM in series [1] (setting [6]); 229 µM and 164 µM and 320 µM in series [1] (setting [7]).
`COc1cc(NCc2ccccn2)c2ncccc2c1` [Compound 4-1]: the IC50 in series [1] (setting [6]) is 0.47 µM; in series [1] (setting [7]), 0.34 µM and 0.24 µM and 0.84 µM.
Regarding `COc1cc(NC2CCN(Cc3ccccc3)CC2)c2ncccc2c1` [Compound 4-2], the IC50 is 4.8 µM in series [1] (setting [6]); 4.5 µM and 4.7 µM and 5.3 µM in series [1] (setting [7]).
Regarding `CCC(CC)(CCC#N)CNc1cc(OC)cc2cccnc12` [Compound 4-3], the IC50 in series [1] (setting [6]) was 10.2 µM; in series [1] (setting [7]) it was 9.1 µM and 7.8 µM and 13.7 µM.
In the case of `CCN(CC)CCC(C)Nc1cc(OC)cc2cccnc12` (stereo not drawn) [Compound 4-5], the half-maximal inhibitory concentration (IC50) in series [1] (setting [6]) was 23 µM; in series [1] (setting [7]), 18.5 µM and 21.7 µM and 28.8 µM.
As to `CCN1CCC(Nc2cc(OC)cc3cccnc23)CC1` [Compound 4-8], the IC50 in series [1] (setting [6]) was 1.6 µM; in series [1] (setting [7]) it was 2.2 µM and 0.89 µM and 1.65 µM.
Regarding `CCC(CC)(CCCN)CNc1cc(OC)cc2cccnc12` [Compound 4-9], the IC50 in series [1] (setting [6]) is 18.5 µM; in series [1] (setting [7]), 11.6 µM and 27.5 µM and 16.4 µM.
For `O=[N+]([O-])c1ccc(NCCNc2cc(C(F)(F)F)nc3cc(C(F)(F)F)ccc23)nc1` [Compound 5, N-(2-(5-nitropyridin-2-ylamino)ethyl)-2,7-bis(trifluoromethyl)quinolin-4-amine], the IC50 in series [1] (setting [6]) is 189 µM; in series [1] (setting [7]), 132 µM and 180 µM and 255 µM.
In the case of `Clc1ccc2cc(-c3ccccc3)cnc2c1` [Compound 7, 7-chloro-3-phenylquinoline], the IC50 in series [1] (setting [6]) was 43.3 µM; in series [1] (setting [7]), 49.5 µM and 40 µM and 40.3 µM.
Regarding `COc1ccc2c(ccc[n+]2[O-])c1` [Compound 9, 6-methoxyquinoline N-oxide], the half-inhibitory concentration (IC50) was 4.9 µM in series [1] (setting [6]); 4.2 µM and 4.7 µM and 5.8 µM in series [1] (setting [7]).
Turning to `CCN(CC)CCCC(C)Nc1ccnc2cc(Cl)ccc12` (stereo not drawn) [chloroquine, reference compound], the ED90 in series [2] (P. yoelii ssp. NS, sc, once daily D0 to D+3, mice) stood at 19.0. The same compound showed an ED50 in series [2] (sc) of 5 mg/kg. The IC50 in series [1] (read-out: QR2 IC50) was 1 to 5 µM; in series [1] (setting [8]), 1.13 µM; in series [1] (setting [9]) it was 4.13 µM; in series [1] (setting [10]) it was 3.99 µM and 4.15 µM and 4.25 µM.
For the compound `OC(c1cc(C(F)(F)F)nc2c(C(F)(F)F)cccc12)C1CCCCN1` (stereo not drawn) [mefloquine, reference compound], the half-maximal inhibitory concentration (IC50) in series [1] (setting [6]) is 33 µM; in series [1] (setting [7]), 28 µM and 34.8 µM and 36.5 µM. Moreover, the ED90 in series [4] (setting [11]) amounted to 100; in series [5] (P. chabaudi AS, sc (subcutaneous injection), once daily D0 to D+3, mice) it was 3.0. The median effective dose (ED50) was 20 mg/kg in series [4] (setting [11]) and 1.5 mg/kg in series [5] (P. chabaudi AS, sc (subcutaneous injection), once daily D0 to D+3, mice, read-out: ED50).
Consider `COc1cc(NC(C)CCCN)c2ncccc2c1` (stereo not drawn) [primaquine, reference compound], for which the IC50 in series [1] (IC50 (μM), individual determinations, assay range given) was 14.2 µM and 11 µM and 13.2 µM; in series [1] (IC50 Average, average of the determinations), 13 µM.
